This assay has as its system DNA. Kind of assay: Binding affinity to calf thymus DNA. The assay is classed as nucleic-acid assay. Particulars: Bos taurus.

`COc1cc2c(cc1OCCCN)CC[n+]1cc3c(OCCCN)c(OC)ccc3cc1-2`: the Kapp was 2.81 10^5/M.
The same measure for `COc1cc2c(cc1OCCCNC(=O)C(N)CCCCNC(=O)C(N)CCCCN)CC[n+]1cc3c(OCCCNC(=O)C(N)CCCCNC(=O)C(N)CCCCN)c(OC)ccc3cc1-2` (centres undefined): 1.15 10^7/M.
`COc1cc2c(cc1OCCCNC(=O)C(N)CCCCN)CC[n+]1cc3c(OCCCNC(=O)C(N)CCCCN)c(OC)ccc3cc1-2` (centres undefined): the Kapp was 1.08 10^7/M.
Then `COc1cc2c(cc1OC)-c1cc3ccc(OC)c(OC)c3c[n+]1CC2`, with 8.72 10^3/M.

These data come from ChEMBL document CHEMBL1146310, “Amplification of DNA-binding affinities of protoberberine alkaloids by appended polyamines” (Bioorg Med Chem Lett, 2007).
